Reference: publication PMC1350429 (Purinergic Signalling, 2005)
Read-outs that look alike come from different tables or passages of the source. Blank lines part the entries; values can stand above or below the molecule they belong to.

Legend:
human P2Y1 receptor [1] = biological target: T1, human P2Y1 receptor (Homo sapiens, UniProt P47900); assay type: cell-based; details: for Calcium response on addition of nucleotide: control experiments
human P2Y1 receptor [2] = biological target: T1, human P2Y1 receptor; test: [3H]MRS2279 binding assay, membranes from astrocytoma cells
human P2Y1 receptor [3] = biological target: T1, human P2Y1 receptor; test: Yeast liquid growth assay; assay type: cell-based
P2Y1 receptor = details: read-out: KB previously reported; cited from earlier work
[4] = read-out: Functional potency (EC50), Calcium (astrocytoma), 1321N1 astrocytoma cells, FlexStation, n = 3
[5] = read-out: Binding (Ki), Astrocytoma, competition for [3H]MRS2279 (8 nM) binding, 30 min, 4°C

T1 sequence (P47900 whole entry): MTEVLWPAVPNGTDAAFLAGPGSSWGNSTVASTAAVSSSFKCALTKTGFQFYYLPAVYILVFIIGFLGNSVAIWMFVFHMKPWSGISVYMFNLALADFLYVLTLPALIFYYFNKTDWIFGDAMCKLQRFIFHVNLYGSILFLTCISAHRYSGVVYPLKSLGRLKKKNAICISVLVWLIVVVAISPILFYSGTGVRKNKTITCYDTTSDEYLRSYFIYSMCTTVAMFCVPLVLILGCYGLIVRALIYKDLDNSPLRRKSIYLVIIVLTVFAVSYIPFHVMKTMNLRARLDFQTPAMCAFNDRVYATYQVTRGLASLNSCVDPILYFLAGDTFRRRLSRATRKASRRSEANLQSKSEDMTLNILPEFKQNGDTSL

Molecule: 2-hexylthioadenosine 5′-monophosphate [HT-AMP]
EC50 (human P2Y1 receptor [1]; [4]): 16 ± 11 nM
Ki (human P2Y1 receptor [2]; [5]): 1700 nM

Molecule: CNc1ncnc2c1ncn2[C@H]1C[C@H](OP(=O)(O)O)[C@@H](COP(=O)(O)O)O1 [MRS2179, N^6-methyl-2′-deoxyadenosine-3′,5′-bisphosphate]
Effect on ADP concentration-response curve in yeast growth assay (human P2Y1 receptor [3]; MRS2179 fixed at 10^-6, 10^-5, 10^-4 M, agonist ADP): right shift in the curves
Kb (human P2Y1 receptor [1]; KB (Schild analysis), antagonism of ADP-induced calcium mobilization): 164 nM
Kb (P2Y1 receptor): 177 nM

Molecule: Nc1ccc(CCSc2nc(N)c3ncn([C@@H]4O[C@H](COP(=O)(O)OP(=O)(O)OP(=O)(O)O)[C@@H](O)[C@H]4O)c3n2)cc1 [PAPET-ATP, 2-[4-amino (2-phenylethyl)thio]-ATP]
EC50 (human P2Y1 receptor [1]; [4]): 28 ± 13 nM
Ki (human P2Y1 receptor [2]; [5]): 1100 nM

Molecule: O=c1ccn([C@@H]2O[C@H](COP(=O)(O)OP(=O)(O)O)[C@@H](O)[C@H]2O)c(=O)[nH]1 [UDP, uridine 5’-diphosphate]
Yeast growth in presence of nucleotide (human P2Y1 receptor [3]; data not shown): Basal growth was low
Calcium response on addition of nucleotide (human P2Y1 receptor [1]): did not induce any response

Molecule: O=c1ccn([C@@H]2O[C@H](COP(=O)(O)OP(=O)(O)OP(=O)(O)O)[C@@H](O)[C@H]2O)c(=O)[nH]1 [UTP, uridine 5’-triphosphate]
Calcium response on addition of nucleotide (human P2Y1 receptor [1]): did not induce any response

The remaining lines, values ahead:

EC50 (human P2Y1 receptor [1]; [4]): 3000 ± 1500 nM
Molecule: Nc1ncnc2c1ncn2[C@@H]1O[C@H](COP(=O)(O)OP(=O)(O)OP(=O)(O)O)[C@@H](N)[C@H]1O [3AM-ATP, 3′-amino-3′-deoxy-ATP]

EC50 (human P2Y1 receptor [3]): 1800 ± 650 nM
EC50 (human P2Y1 receptor [1]): 58 ± 17 nM
Molecule: Nc1ncnc2c1ncn2[C@@H]1O[C@H](COP(=O)(O)OP(=O)(O)O)[C@@H](O)[C@H]1O [ADP, adenosine 5′-diphosphate]

EC50 (human P2Y1 receptor [3]): 21000 nM
EC50 (human P2Y1 receptor [1]): 86 ± 42 nM
Ki (human P2Y1 receptor [2]): 710 nM
Molecule: Nc1ncnc2c1ncn2[C@@H]1O[C@H](COP(=O)(O)OP(=O)(O)S)[C@@H](O)[C@H]1O (stereo partly drawn) [ADP-β-S, adenosine 5′-O-(2-thio-diphosphate)]
